Columns and labels:
[1] = tested on: thoracic spinal cord of EAE SJL/J mice; assay: EAE spinal cord white matter damage; type: in vivo, mouse
Text: At day 40 post-immunization, mice from each group are sacrificed with an overdose of ketamine/xylazine. Spinal cords are dissected, fixed in 10% buffered formalin, and embedded in paraffin. Five micron thick sections are stained with Hematoxylin and Eosin (H&E) and Luxol Fast Blue (LFB) to assess myelin loss. Bielshowesky's silver impregnation is used to evaluate axonal integrity. To asses the amount of axonal loss, paraffin sections are exposed to monoclonal antibodies against mouse non-phosphorylated neurofilament H (Clone SMI-32, Stemberger Monoclonals, Baltimore, USA) and monoclonal antibodies against APP (Clone 22C11, Chemicon). SMI-32 is detected with a Cy3-labeled antibody and visualized by fluorescence microscopy. Anti-APP antibodies are detected by incubation with ColonoPAP, and APP-positive axons are visualized with 3,3′-diaminobenzidine (DAB).
The percentage of the spinal cord showing damage was determined in the cervical, thoracic and lumbar cord. At each level, regions in the 1) dorsal columns and 2) the lateral and ventral white matter tracts containing damaged fibers was circumscribed on photomontages (final magnification ×100) of the entire spinal cord. Damaged areas in each of the two regions were measured using a SummaSketch III (Summagraphics, Seymour, Conn.) digitizing tablet and BIOQUANT Classic 95 software (R&M Biometrics, Nashville, Tenn.). Measurements were also be made of the total area (damaged and nondamaged) of the 1) dorsal columns and 2) the lateral and ventral columns. For each section (one section per animal), the cumulative percent lesion areas were calculated for each region (dorsal column, lateral and ventral columns).

rDNA locus (RDN1) = assay: Ribosomal DNA recombination and silencing assays; type: cell-based, S. cerevisiae
Protocol: Pre-treated cells (RDN1::URA3) were harvested and spotted as 10-fold serial dilutions on either SC or SC with 5-fluororotic acid (5-FOA).
Ribosomal DNA silencing assays using the URA3 reporters were performed as previously described^26. Ribosomal DNA recombination frequencies were determined by plating W303AR cells^37 on YPD medium with low adenine/histidine and counting the fraction of half-red sectored colonies using Bio-Rad Quantity One software as previously described^35. At least 6000 cells were analyzed per experiment and all experiments were performed in triplicate.

D. melanogaster = D. melanogaster lifespan; type: in vivo
Protocol: Females (a) and males (b) with loss-of-function genotype dSir2^4.5/dSir2^5.26. Females (c) and males (d) with strong hypomorphic genotype dSir2^17/dSir2^KG00871.
Survival assays were conducted independently with adult D. melanogaster in two laboratories. In the first laboratory, all trials used an yw marked wild-type strain. Larvae were reared on standard cornmeal-sugar-yeast (CSY) agar diet (cornmeal 5%, sucrose 10.5%, SAF yeast 2%, and agar 0.7%). Newly eclosed adults were placed in 1 L demography cages with approximately 75 males and 75 females. Three to four replicate 1 L demography cages were used for each treatment group in each trial. Every two days, dead flies were removed and scored, and food vials were replenished. Food vials contained cornmeal-sugar-yeast diet with SAF yeast as either 2% or 3% by weight. Test compounds in 100 μl of EtOH (or blank EtOH in controls) were mixed into melted aliquots of the adult food media to make a final concentration of 0, 10 or 100 μM. Fresh stock solutions and adult media were prepared weekly. In the second laboratory, lifespan trials were conducted with the wild type strain Canton-S, dSir2^4.5 and dSir2^5.26 (S. Smolik, University of Oregon), dSir2^17 (S. Astrom, Stockholm University, Sweden), and dSir2^KG00871 (Drosophila Stock Center, Bloomington, Ind.). Larvae for all tests were reared on standard cornmeal-sugar-yeast diet. Newly eclosed adults were incubated in plastic shell vials containing 5 ml of 15% sugar-yeast diet (15% SY) or 5% sugar-yeast (5% SY) diet (15% SY: 15% yeast, 15% sucrose, 2% agar; 5% SY: 5% yeast, 5% sucrose, 2% agar as per Ref. ^20). In all trials, ˜20 males with ˜20 females were placed into each of 10 vials/treatment group. Every two days, flies were passed into new vials and dead flies were counted. […] Final compound concentrations were 0, 10, 100 or 200 μM. Fresh stock solution and adult media was prepared weekly.

Human 293 = assay: Survival of 293 cells; details: 50 micromolar
Text: The number of live cells each time point was counted using a Coulter counter.

C. elegans = C. elegans lifespan; type: in vivo
Protocol: Thus, the presence of resveratrol in the growth media of C. elegans extends their lifespan.
Bristol N2 (Caenorhabditis Genetics Center) was used as the wild-type strain. The sir-2.1 mutant strain was generated by backcrossing VC199 (sir-2.1(ok434)) to N2 four times. Cultures were grown on standard NGM media and maintained on E. coli strain OP50. For the lifespan assays, synchronized animals were transferred to treatment plates as young adults (2 d after hatching, day 0 of assay), and were transferred to fresh treatment plates every 2 days for the first 6 to 8 days of the assay. […] For some lifespan trials, heat-killed OP50 were used as a food source. OP50 cultures were heated to 65° C. for 30 minutes, then pelleted and resuspended in 1/10 volume in S Basal supplemented with 10 mM MgSO4. In all assays, worms were monitored daily for mortality by gently probing with a platinum pick. Assays were performed at 24° C. To assay worm feeding rates, worms at the indicated stages were placed on treatment plates (no FUdR) for 4-5 hours, then videoed for 1 minute using a Pixelink PL-662 camera. The frame rate was slowed and the pumping rate of the pharynx was counted. To assay fecundity, gravid hermaphrodites (5 per plate, raised from synchronized L1s on normal or treatment plates) were allowed to lay eggs on their respective media for 5 hours, and the total number of eggs was counted.

S. cerevisiae = assay: Yeast chronological lifespan; type: cell-based; details: 10 μM or 100 μM, nutrient deprived state

## Oc1ccc(/C=C/c2cc(O)cc(O)c2)cc1 [Resveratrol, 3,5,4′-Trihydroxy-trans-stilbene]
[1]; resveratrol 200 mg/kg
  degree of damage in dorsal, lateral and ventral white matter: slightly increased, albeit not significantly
[1]; resveratrol 400 mg/kg, significant
  reduction of degree of damage in dorsal, lateral and ventral white matter: approximately 40%
rDNA locus (RDN1); SIR2-dependent
  reduction of the frequency of rDNA recombination: ~60%
rDNA locus (RDN1); URA3 reporter, 5-FOA
  effect on rDNA silencing: only minor effects on rDNA silencing
rDNA locus (RDN1); with Sir2 inhibitor nicotinamide
  rDNA recombination in the presence of nicotinamide: decreased
D. melanogaster; Canton-S/dSir2^KG0087
  increased lifespan (maximum): up to 17%
D. melanogaster; dSir2^4.5/dSir2^5.26 or dSir2^17/dSir2^KG00871, 100 μM
  lifespan in flies lacking or severely decreased in dSir2: failed to extend lifespan
D. melanogaster; dSir2^KG0087/dSir2^KG0087
  longevity in flies homozygous for a hypomorphic dSir2 allele: a small but statistically significant amount
D. melanogaster; restricted diet
  longevity on restricted diet: neither resveratrol nor fisetin further increased longevity
D. melanogaster; wild type Canton-S and yw, males and females, normal diet
  lifespan extended (maximum): up to 29%
Human 293; 0 h
  Survival of 293 cells: 100%
Human 293; 48 h
  Survival of 293 cells: 5%
Human 293; 96 h
  Survival of 293 cells: 0%
C. elegans; 50 worms strain N2, 100 μM, control 5 alive
  worms alive on day 17: 17 worms
C. elegans; sir-2.1 mutants, 100 μM, heat-killed OP50, not statistically significant
  lifespan extension: 5.2%
C. elegans; sir-2.1 mutants, 100 μM, live OP50, P=0.81
  lifespan extension: 3.3%
C. elegans; wild-type N2, 100 μM, live OP50
  lifespan extension: 12.6%
C. elegans; wild-type worms, 100 μM, heat-killed or live E. coli
  lifespan extended (maximum): up to 15%
S. cerevisiae
  chronological lifespan: failed to extend chronological lifespan

From patent publication US20060276393A1, “Novel compositions for preventing and treating neurodegenerative and blood coagulation disorders” (Sirtris Pharmaceuticals, Inc., priority 2005, published 2006)
